Test results: the NIST ThermoML archive (doi:10.1016/j.tca.2016.07.005)
± gives the expanded uncertainty stated by the source.

Columns and labels:
[1] = 101.3 kPa, Liquid; for viscosity: Concentric cylinders viscometry; for mass density: Vibrating tube method
[2] = xn = mol fraction of the nth substance listed; conditions: 101.3 kPa, Liquid, x1 = 1; for viscosity: Concentric cylinders viscometry; for mass density: Vibrating tube method

SMILES	viscosity ([1]; 298.15 K)	mass density ([1]; 298.15 K)	viscosity ([1]; 303.15 K)	mass density ([1]; 303.15 K)	viscosity ([1]; 313.15 K)	mass density ([1]; 313.15 K)	viscosity ([1]; 323.15 K)	mass density ([1]; 323.15 K)	viscosity ([1]; 333.15 K)	mass density ([1]; 333.15 K)	viscosity ([1]; 343.15 K)	mass density ([1]; 343.15 K)	viscosity ([2]; 313.15 K)	mass density ([2]; 313.15 K)	viscosity ([2]; 323.15 K)	mass density ([2]; 323.15 K)	viscosity ([2]; 333.15 K)	mass density ([2]; 333.15 K)	viscosity ([2]; 343.15 K)	mass density ([2]; 343.15 K)	also measured
CCCC[n+]1ccn(C)c1.O=S(=O)([N-]S(=O)(=O)C(F)(F)F)C(F)(F)F	49.5 ± 5 mPa·s	1436.4 ± 2.1 kg/m3	39 ± 3.9 mPa·s	1431.5 ± 2.1 kg/m3	26.7 ± 2.7 mPa·s	1421.9 ± 2.1 kg/m3	20.1 ± 2 mPa·s	1412.4 ± 2.1 kg/m3	15.5 ± 1.6 mPa·s	1402.9 ± 2.1 kg/m3	12.4 ± 1.2 mPa·s	1393.5 ± 2.1 kg/m3	–	–	–	–	–	–	–	–	viscosity ([1]; 293.15 K): 64 ± 6.4 mPa·s; mass density ([1]; 293.15 K): 1441.2 ± 2.1 kg/m3
CCCC[n+]1ccn(C)c1.O=S(=O)([N-]S(=O)(=O)C(F)(F)F)C(F)(F)F + O=S1(=O)CCCC1	–	–	–	–	–	–	–	–	–	–	–	–	26.7 ± 2.7 mPa·s	1421.9 ± 2.1 kg/m3	20.1 ± 2 mPa·s	1412.4 ± 2.1 kg/m3	15.5 ± 1.6 mPa·s	1402.9 ± 2.1 kg/m3	12.4 ± 1.2 mPa·s	1393.5 ± 2.1 kg/m3	viscosity ([2]; 293.15 K): 64 ± 6.4 mPa·s; mass density ([2]; 293.15 K): 1441.2 ± 2.1 kg/m3; viscosity ([2]; 298.15 K): 49.5 ± 5 mPa·s; mass density ([2]; 298.15 K): 1436.4 ± 2.1 kg/m3; viscosity ([2]; 303.15 K): 39 ± 3.9 mPa·s; mass density ([2]; 303.15 K): 1431.5 ± 2.1 kg/m3
OCC(O)CO [glycerol]	–	–	–	–	303 ± 31 mPa·s	1249 ± 2 kg/m3	139.3 ± 14 mPa·s	1242.4 ± 2 kg/m3	85.5 ± 8.6 mPa·s	1235.7 ± 2 kg/m3	50.5 ± 5.1 mPa·s	1228.9 ± 2 kg/m3	–	–	–	–	–	–	–	–	viscosity ([1]; 353.15 K): 31.2 ± 3.1 mPa·s; mass density ([1]; 353.15 K): 1221.9 ± 2 kg/m3; viscosity ([1]; 363.15 K): 19.9 ± 2 mPa·s; mass density ([1]; 363.15 K): 1214.8 ± 2 kg/m3
OCC(O)CO [glycerol] + O=S1(=O)CCCC1	–	–	–	–	–	–	–	–	–	–	–	–	303 ± 31 mPa·s	1249 ± 2 kg/m3	139.3 ± 14 mPa·s	1242.4 ± 2 kg/m3	85.5 ± 8.6 mPa·s	1235.7 ± 2 kg/m3	50.5 ± 5.1 mPa·s	1228.9 ± 2 kg/m3	viscosity ([2]; 353.15 K): 31.2 ± 3.1 mPa·s; mass density ([2]; 353.15 K): 1221.9 ± 2 kg/m3; viscosity ([2]; 363.15 K): 19.9 ± 2 mPa·s; mass density ([2]; 363.15 K): 1214.8 ± 2 kg/m3
O=S1(=O)CCCC1 [sulfolane]	11.9 ± 1.2 mPa·s	1266.4 ± 2 kg/m3	10.5 ± 1.1 mPa·s	1259.4 ± 2 kg/m3	8.1 ± 0.8 mPa·s	1251.7 ± 2 kg/m3	6.4 ± 0.6 mPa·s	1244 ± 2 kg/m3	5.2 ± 0.5 mPa·s	1235.4 ± 2 kg/m3	4.3 ± 0.4 mPa·s	1225 ± 2 kg/m3	–	–	–	–	–	–	–	–	viscosity ([1]; 353.15 K): 3.7 ± 0.4 mPa·s; mass density ([1]; 353.15 K): 1215 ± 2 kg/m3; viscosity ([1]; 363.15 K): 3.2 ± 0.3 mPa·s; mass density ([1]; 363.15 K): 1206 ± 2 kg/m3
